Legend:
Type in all cases: in vivo
Setaria faberi (SETFA) = assay: Post-emergence Test, Setaria faberi (SETFA); design: key to percentage damage caused to the plant, SETFA (five-point scale): 5=81-100%, 4=61-80%, 3=41-60%, 2=21-40%, 1=0-20% damage; conditions: 1000 g/ha, evaluated after 13 days
How it was run: (§1)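 Application was a spray of acetone/water (50:50) with 0.5% Tween 20 onto pots of test species sown in standard soil. Unless otherwise stated, the rate was 1000 g/ha. After 13 days under glasshouse conditions (24/16 °C, 65% humidity), injury was scored from 1 (0-20%) to 5 (81-100%).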

[1] = system: Amaranthus palmeri (AMAPA); assay: Pre-emergence Test, Amaranthus palmeri (AMAPA); conditions: evaluated after 13 days
[2] = system: Echinochloa crus-galli (ECHCG); assay: Pre-emergence Test, Echinochloa crus-galli (ECHCG); conditions: evaluated after 13 days
[3] = system: Amaranthus retoflexus (AMARE); assay: Post-emergence Test, Amaranthus retoflexus (AMARE); design: key to percentage damage caused to the plant, AMARE (five-point scale): 5=81-100%, 4=61-80%, 3=41-60%, 2=21-40%, 1=0-20% damage; conditions: evaluated after 13 days
How it was run: as §1

[4] = system: Amaranthus retoflexus (AMARE); assay: Pre-emergence Test, Amaranthus retoflexus (AMARE); conditions: evaluated after 13 days
[5] = system: Amaranthus palmeri (AMAPA); assay: Post-emergence Test, Amaranthus palmeri (AMAPA); design: key: 5=81-100%, 4=61-80%, 3=41-60%, 2=21-40%, 1=0-20% damage; conditions: evaluated after 13 days
How it was run: as §1

Zea mays (ZEAMX) [6] = assay: Post-emergence Test, Zea mays (ZEAMX); design: key to percentage damage caused to the plant, ZEAMX (five-point scale): 5=81-100%, 4=61-80%, 3=41-60%, 2=21-40%, 1=0-20% damage; conditions: evaluated after 13 days
How it was run: as §1

Zea mays (ZEAMX) [7] = assay: Pre-emergence Test, Zea mays (ZEAMX); conditions: evaluated after 13 days
[8] = system: Echinochloa crus-galli (ECHCG); assay: Post-emergence Test, Echinochloa crus-galli (ECHCG); design: key to percentage damage caused to the plant, ECHCG (five-point scale): 5=81-100%, 4=61-80%, 3=41-60%, 2=21-40%, 1=0-20% damage; conditions: evaluated after 13 days; for Post-emergence Test ECHCG, percentage damage caused to the plant (five-point scale): 250 g/Ha (*)
How it was run: as §1

[9] = system: Ipomoea hederacea (IPOHE); assay: Post-emergence Test, Ipomoea hederacea (IPOHE); design: key to percentage damage caused to the plant, IPOHE (five-point scale): 5=81-100%, 4=61-80%, 3=41-60%, 2=21-40%, 1=0-20% damage; conditions: evaluated after 13 days
How it was run: as §1

[10] = system: Ipomoea hederacea (IPOHE); assay: Pre-emergence Test, Ipomoea hederacea (IPOHE); conditions: evaluated after 13 days

Row | Structure (SMILES) | Pre-emergence Test AMAPA, percentage damage caused to the plant (five-point scale) ([1]; 1000 g/ha) | Pre-emergence Test ECHCG, percentage damage caused to the plant (five-point scale) ([2]; 1000 g/ha) | Pre-emergence Test AMARE, percentage damage caused to the plant (five-point scale) ([4]; 1000 g/ha) | Pre-emergence Test ZEAMX, percentage damage caused to the plant (five-point scale) (Zea mays (ZEAMX) [7]; 1000 g/ha) | Pre-emergence Test IPOHE, percentage damage caused to the plant (five-point scale) ([10]; 1000 g/ha) | Post-emergence Test SETFA, percentage damage caused to the plant (five-point scale) (Setaria faberi (SETFA)) | Post-emergence Test AMARE, percentage damage caused to the plant (five-point scale) ([3]; 250 g/Ha (*)) | Post-emergence Test AMARE, percentage damage caused to the plant (five-point scale) ([3]; 1000 g/ha) | Post-emergence Test AMAPA, percentage damage caused to the plant (five-point scale) ([5]; 250 g/Ha (*)) | Post-emergence Test AMAPA, percentage damage caused to the plant (five-point scale) ([5]; 1000 g/ha) | Post-emergence Test ZEAMX, percentage damage caused to the plant (five-point scale) (Zea mays (ZEAMX) [6]; 250 g/Ha (*)) | Post-emergence Test ZEAMX, percentage damage caused to the plant (five-point scale) (Zea mays (ZEAMX) [6]; 1000 g/ha) | Post-emergence Test ECHCG, percentage damage caused to the plant (five-point scale) [8] | Post-emergence Test IPOHE, percentage damage caused to the plant (five-point scale) ([9]; 250 g/Ha (*)) | Post-emergence Test IPOHE, percentage damage caused to the plant (five-point scale) ([9]; 1000 g/ha) | also measured
1 | CCn1c(Cn2ccc(-c3ccc(F)cc3)n2)cc(=O)c(C(=O)O)c1-c1ccc(Cl)c(Cl)c1 [Compound 193, 2-(3,4-dichlorophenyl)-1-ethyl-6-[[3-(4-fluorophenyl)pyrazol-1-yl]methyl]-4-oxo-pyridine-3-carboxylic acid] | 0 | 0 | 0 | 0 | 1 (1=0-20%) |  |  |  |  |  |  |  |  |  |  | percentage damage caused to the plant, SETFA (five-point scale) (Setaria faberi (SETFA)): 0; percentage damage caused to the plant, AMARE (five-point scale) ([3]; 250 g/Ha): 0; percentage damage caused to the plant, AMARE (five-point scale) ([3]; 1000 g/ha): 1 (1=0-20%); percentage damage caused to the plant, AMAPA (five-point scale) ([5]; 250 g/Ha): 0; percentage damage caused to the plant, AMAPA (five-point scale) ([5]; 1000 g/ha): 1 (1=0-20%); percentage damage caused to the plant, ZEAMX (five-point scale) (Zea mays (ZEAMX) [6]; 250 g/Ha): 0; percentage damage caused to the plant, ZEAMX (five-point scale) (Zea mays (ZEAMX) [6]; 1000 g/ha): 1 (1=0-20%); percentage damage caused to the plant, ECHCG (five-point scale) ([8]; 250 g/Ha): 3 (3=41-60%); percentage damage caused to the plant, IPOHE (five-point scale) ([9]; 250 g/Ha): 0; percentage damage caused to the plant, IPOHE (five-point scale) ([9]; 1000 g/ha): 2 (2=21-40%)
2 | CCn1c(Cn2ccc(-c3cccs3)n2)cc(=O)c(C(=O)O)c1-c1ccc(Cl)c(Cl)c1 [Compound 194, 2-(3,4-dichlorophenyl)-1-ethyl-4-oxo-6-[[3-(2-thienyl)pyrazol-1-yl]methyl]pyridine-3-carboxylic acid] | 0 | 2 (2=21-40%) | 0 | 1 (1=0-20%) | 2 (2=21-40%) | 3 (3=41-60%) | 0 | 2 (2=21-40%) | 0 | 1 (1=0-20%) | 1 (1=0-20%) | 1 (1=0-20%) | 2 (2=21-40%) | 1 (1=0-20%) | 2 (2=21-40%) | Pre-emergence Test AMAPA, percentage damage caused to the plant (five-point scale) ([1]; 250 g/Ha (*)): 0; Pre-emergence Test ECHCG, percentage damage caused to the plant (five-point scale) ([2]; 250 g/Ha (*)): 1 (1=0-20%); Pre-emergence Test AMARE, percentage damage caused to the plant (five-point scale) ([4]; 250 g/Ha (*)): 0; Pre-emergence Test ZEAMX, percentage damage caused to the plant (five-point scale) (Zea mays (ZEAMX) [7]; 250 g/Ha (*)): 0; Pre-emergence Test IPOHE, percentage damage caused to the plant (five-point scale) ([10]; 250 g/Ha (*)): 1 (1=0-20%)
3 | CCn1c(Cn2nc(-c3ccccc3)cc2C(F)(F)F)cc(=O)c(C(=O)O)c1-c1ccc(Cl)c(Cl)c1 [Compound 198, 2-(3,4-dichlorophenyl)-1-ethyl-4-oxo-6-[[3-phenyl-5-(trifluoromethyl)pyrazol-1-yl]methyl]pyridine-3-carboxylic acid] | 1 (1=0-20%) | 1 (1=0-20%) | 1 (1=0-20%) | 1 (1=0-20%) | 0 | 2 (2=21-40%) | 1 (1=0-20%) | 4 (4=61-80%) | 1 (1=0-20%) | 3 (3=41-60%) | 1 (1=0-20%) | 2 (2=21-40%) | 2 (2=21-40%) | 1 (1=0-20%) | 2 (2=21-40%) | 

— US20250098679A1, “HERBICIDAL PYRIDONE DERIVATIVES” (SYNGENTA CROP PROTECTION AG, priority 2021, published 2025)
